Data taken from patent publication US8809280B2, “Therapeutic peptides” (Lytix Biopharma AS, priority 2009, dated 2014).
pEC50: −log10 of the molar value. In brackets after ≈: the same amount, converted by molar mass. Where two headings read alike, the source gives them in different places.

What was measured:
Type in all cases: cell-based
[1] = tested on: Staphylococcus aureus (ATTC 25923); assay: microbe, parasite or virus in culture; details: for MIC: Staphylococcus aureus; for Therapeutic index S. aureus: EC50 RBC divided by MIC
Description: (§1) The antimicrobial testing was conducted by TosLab A/S (Tromsø, Norway). Each compound was diluted to 1 mg/ml in water and tested in duplicates at 200, 100, 50, 35, 15, 10, 5, 2.5, 1, 0.5 μg/ml except 4n which was tested at 50, 35, 15, 10, 5, 2.5, 1, 0.5 μg/ml due to solubility problems. All tested compounds were di TFA salts.
(§2) The bacterial strains were grown in 2% Bacto Peptone water until exponential growth was achieved. […] A bacterial concentration of 2×10^6 cfu/ml was used. Both negative control (no peptide) and positive control (Gentamicin) was used for all bacterial strains. Growth or no growth was judged by the turbidity of the wells.
Staphylococcus aureus (ATTC 25923)
(§3) Antimicrobial assays: 200 μg/ml
(§4) Suitable methodologies are described in Example 1.
(§5) Each compound was tested in duplicates at 200, 100, 50, 35, 15, 10, 5, 2.5, 1, 0.5 μg/ml. All tested compounds were di-trifluoroacetic acid salts.

[2] = tested on: methicillin resistant Staphylococcus aureus (ATCC 33591); assay: microbe, parasite or virus in culture; details: for MIC: Staphylococcus aureus; for Therapeutic index MRSA: EC50 RBC divided by MIC
Description: as §1, §2
Methicillin resistant Staphylococcus aureus (ATCC 33591)
as §3, §4, §5

[3] = tested on: methicillin resistant Staphylococcus epidermidis (ATCC 27626); assay: microbe, parasite or virus in culture; details: for MIC: Staphylococcus epidermidis, ATCC 27626 / MRSE; for Therapeutic index MRSE: EC50 RBC divided by MIC
Description: as §1, §2
Methicillin resistant Staphylococcus epidermidis (ATCC 27626)
as §3, §4, §5

[4] = tested on: Escherichia coli (ATTC 25922); assay: microbe, parasite or virus in culture; details: for MIC: Escherichia coli; for Therapeutic index E. coli: EC50 RBC divided by MIC
Description: as §1, §2
Escherichia coli (ATTC 25922)
as §3, §4, §5

[5] = tested on: human red blood cells; assay: cells; details: Erythrocyte, highest concentration tested 1000 μg/ml
Description: The hemolytic testing against human erythrocytes was conducted by Lytix Biopharma A/S (Tromso, Norway). Each compound was tested from a concentration of 1 mg/ml and lower, except 4k and 4n which was only tested up to 0.5 mg/ml due to solubility problems. 8 mL of blood was collected from adult healthy male donors. The blood was divided equally and distributed in a commercial available EDTA containing test tube (BD vacutainer, 7.2 mg K2 EDTA) and in a 10 mL reaction vial containing 40 μL of a heparin solution (1000 U/mL in 0.9% sodium chloride). After 30 minutes the hematocrit of the EDTA treated blood was determined. The heparinized blood was centrifuged for 10 minutes at 1500 rpm and the supernatant removed. Subsequently the RBCs were washed with prewarmed PBS three times, and diluted to 10% hematocrit. The compounds dissolved in PBS (concentration 1 μg/mL to 1000 µg/mL) and the erythrocytes were incubated under agitation at 37° C. for one hour. A positive control with an end concentration of 0.1% TRITON X-100 (nonionic surfactant) and a negative control containing pure PBS buffer were included. The samples were centrifuged (4000 rpm) for 5 minutes and the absorption of the supernatant was measured at 405 nm. The values given in Table 1A correspond to 50% hemolysis.
The plasma fraction of heparinized human blood was first removed by centrifugation and three additional washing steps with 37° C. pre-warmed phosphate buffered saline (PBS). Subsequently, the human RBC were diluted to 10% hematocrit and the β^2,2-amino acid derivatives were dissolved in PBS providing concentrations ranging from 1-1000 μg/mL. The diluted RBC were added to the compound solutions to a final erythrocyte concentration of 1% v/v. PBS and TRITON X-100 (non-ionic surfactant), in a final concentration of 0.1% v/v, were included as negative and positive control. After 1 hour agitated incubation at 37° C. the samples were centrifuged at 4000 rpm for 5 min. Release of hemoglobin was determined by measuring the absorbance of the supernatant at 405 nm. Hemolytic activity was calculated as the ratio of treated sample with β^2,2-amino acid derivative and tenside treated sample according to the formula: […]

[6] = tested on: MRC-5; assay: Toxicity assay MRC-5; details: highest concentration tested 500 μg/ml; for IC50: Homo sapiens, MRC5, Example 2; for Toxicity MRC-5: Example 2
Description: Cells for Toxicity Studies Used MRC-5 and human RBC MRC-5 assay: 500 μg/ml

[7] = Example 2, values separated by / are repeat tests, read-out: Antimicrobial potency (MIC) S. aureus
[8] = ATCC 33591 / MRSA, Example 2, values separated by / are repeat tests, read-out: Antimicrobial potency (MIC) MRSA
[9] = Example 2, values separated by / are repeat tests, read-out: Antimicrobial potency (MIC) MRSE
[10] = Example 2, values separated by / are repeat tests, read-out: Antimicrobial potency (MIC) E. coli
[11] = Homo sapiens, Example 2, * low solubility in the test media, read-out: Toxicity RBC (EC50)
[12] = Example 2, values separated by / are repeat tests
[13] = ATCC25923, Example 4, ATCC 25923, di-trifluoroacetate salts, highest concentration tested 200 μg/ml, read-out: MIC S. aureus
[14] = ATCC33591, Example 4, ATCC 33591, di-trifluoroacetate salts, highest concentration tested 200 μg/ml, read-out: MIC MTRSA
[15] = Example 4, ATCC 27626, di-trifluoroacetate salts, highest concentration tested 200 μg/ml, read-out: MIC MRSE
[16] = ATCC25922, Example 4, ATCC 25922, di-trifluoroacetate salts, highest concentration tested 200 μg/ml, read-out: MIC E. coli
[17] = Example 4, hemolytic activity, human red blood cells, read-out: EC50 RBC

SMILES | MIC [1, 7] | MIC [2, 8] | MIC [3, 9] | MIC [4, 10] | Antimicrobial potency (MIC) S. aureus [1, 12] | Antimicrobial potency (MIC) MRSE [3, 12] | MIC [1, 13] | MIC [2, 14] | MIC [3, 15] | MIC [4, 16] | EC50 [5, 11] | IC50 [6] | Toxicity MRC-5 [6] | EC50 [5, 17] | Therapeutic index S. aureus [1] | Therapeutic index MRSA [2] | Therapeutic index MRSE [3] | Therapeutic index E. coli [4] | pEC50 [5, 17]
NCCNC(=O)C(CN)(CCc1ccccc1)CCc1ccccc1 [Compound 5, N-(2-aminoethyl)-2-(aminomethyl)-2-phenethyl-4-phenylbutanamide] | 100 µg/mL | 100 µg/mL | 50 µg/mL | > 200 µg/mL | – | – | – | – | – | – | > 1000 µg/mL | 21.5 µg/mL (≈ 63.3 µM) | – | – | – | – | – | – | –
Cc1ccc(CC(CN)(Cc2ccc(C)cc2)C(=O)NCCN)cc1 [Compound 8, 3-amino-N-(2-aminoethyl)-2,2-bis(4-methylbenzyl)propanamide] | 200 µg/mL | 100 µg/mL | 100 µg/mL | > 200 µg/mL | – | – | – | – | – | – | > 1000 µg/mL | 26 µg/mL (≈ 76.6 µM) | 44 µg/mL | – | – | – | – | – | –
CC(C)(C)c1cc(CC(CN)(Cc2cc(C(C)(C)C)cc(C(C)(C)C)c2)C(=O)NCCN)cc(C(C)(C)C)c1 [Compound 14, 3-amino-N-(2-aminoethyl)-2,2-bis(3,5-di-tert-butylbenzyl)propanamide] | 3.75 µg/mL | 2.5 µg/mL | 2.5 µg/mL | – | 5 µg/mL | 5 µg/mL | – | – | – | – | > 62.5 µg/mL | 7.5 µg/mL (≈ 14 µM) | 8.5 µg/mL | – | – | – | – | – | –
CN(C)CCN1CCN(C(=O)C(CN)(Cc2ccc(C(C)(C)C)cc2)Cc2ccc(C(C)(C)C)cc2)CC1 [Compound 34, 3-amino-2,2-bis(4-tert-butylbenzyl)-1-(4-(2-(dimethylamino)ethyl)piperazin-1-yl)propan-1-one] | 10 µg/mL | 10 µg/mL | 10 µg/mL | 10 µg/mL | – | – | – | – | – | – | 252 µg/mL | – | – | – | – | – | – | – | –
CN1CCN(C(=O)C(CN)(CCCc2ccccc2)CCCc2ccccc2)CC1 [Entry 5a] | – | – | – | – | – | – | 315 µM | 315 µM | 315 µM | 315 µM | – | – | – | > 1000 µg/mL | – | – | – | – | –
CN(C)CCNC(=O)C(CN)(Cc1ccc(C(F)(F)F)cc1)Cc1ccc(C(F)(F)F)cc1 [Entry 6b] | – | – | – | – | – | – | 14 µM | 7.1 µM | 21 µM | 50 µM | – | – | – | – | 33 | 66 | 22 | 9.4 | 3.33
NCCNC(=O)C(CN)(Cc1ccc(C(F)(F)F)cc1)Cc1ccc(C(F)(F)F)cc1 [Entry 7b] | – | – | – | – | – | – | 15 µM | 7.4 µM | 15 µM | 52 µM | – | – | – | – | 28 | 57 | 28 | 8 | 3.37

More lines, main results first:

MIC [1, 7] | MIC [2, 8] | MIC [3, 9] | MIC [4, 10] | Antimicrobial potency (MIC) S. aureus [1, 12] | Antimicrobial potency (MIC) MRSE [3, 12] | MIC [1, 13] | MIC [2, 14] | MIC [3, 15] | MIC [4, 16] | SMILES | EC50 [5, 11] | IC50 [6] | Toxicity MRC-5 [6] | EC50 [5, 17] | Therapeutic index S. aureus [1] | Therapeutic index MRSA [2] | Therapeutic index MRSE [3] | Therapeutic index E. coli [4] | pEC50 [5, 17]
200 µg/mL | 200 µg/mL | 100 µg/mL | > 200 µg/mL | – | – | – | – | – | – | COc1cc(CC(CN)(Cc2cc(OC)cc(OC)c2)C(=O)NCCN)cc(OC)c1 [Compound 13, 3-amino-N-(2-aminoethyl)-2,2-bis(3,5-dimethoxy-benzyl)propanamide] | > 1000 µg/mL | 62.5 µg/mL (≈ 145 µM) | 68 µg/mL | – | – | – | – | – | –
200 µg/mL | 50 µg/mL | 50 µg/mL | 200 µg/mL | – | – | – | – | – | – | CN(C)CCN1CCN(C(=O)C(CN)(CCCc2ccccc2)CCCc2ccccc2)CC1 [Compound 36, 2-(aminomethyl)-1-(4-(2-(dimethyl-amino)ethyl)piperazin-1-yl)-5-phenyl-2-(3-phenylpropyl)pentan-1-one] | > 1000 µg/mL | – | – | – | – | – | – | – | –
15 µg/mL | 2.5 µg/mL | 10 µg/mL | 35 µg/mL | – | – | – | – | – | – | CN(C)CCN1CCN(C(=O)C(CN)(Cc2ccc3ccccc3c2)Cc2ccc3ccccc3c2)CC1 [Compound 37, 3-amino-1-(4-(2-(dimethylamino)ethyl)piperazin-1-yl)-2,2-bis(naphthalen-2-ylmethyl)propan-1-one] | 301 µg/mL | – | – | – | – | – | – | – | –
35 µg/mL | 5 µg/mL | 50 µg/mL | 100 µg/mL | – | – | – | – | – | – | CN(C)CCN1CCN(C(=O)C(CN)(Cc2ccc(C(F)(F)F)cc2)Cc2ccc(C(F)(F)F)cc2)CC1 [Compound 38, 3-amino-1-(4-(2-(dimethylamino)ethyl)piperazin-1-yl)-2,2-bis(4-(trifluoromethyl)benzyl)propan-1-one] | 862 µg/mL | – | – | – | – | – | – | – | –
– | – | – | – | – | – | 49 µM | 14 µM | 70 µM | 70 µM | CN1CCN(C(=O)C(CN)(Cc2ccc(C(F)(F)F)cc2)Cc2ccc(C(F)(F)F)cc2)CC1 [Entry 5b] | – | – | – | – | 11 | 38 | 7.5 | 7.5 | 3.28
– | – | – | – | – | – | 56 µM | 56 µM | 56 µM | 160 µM | CN(C)CCNC(=O)C(CN)(CCCc1ccccc1)CCCc1ccccc1 [Entry 6a] | – | – | – | – | 9.1 | 9.1 | 9.1 | 3.2 | 3.29
– | – | – | – | – | – | 71 µM | 59 µM | 25 µM | 336 µM | NCCNC(=O)C(CN)(CCCc1ccccc1)CCCc1ccccc1 [Entry 7a] | – | – | – | – | 19 | 23 | 55 | 4.1 | 2.86
